Test results: patent US20120165304A1, “6,7,8,9-Tetrahydro-5H-1,4,7,10a-tetraaza-cyclohept[f]indene derivatives, pharmaceutical compositions containing these compounds, their use and processes for preparing them” (BOEHRINGER INGELHEIM INTERNATIONAL GMBH, priority 2008, published 2012)

Biological target: human 5-HT2C receptor (Homo sapiens, UniProt P28335, I156V/I160V/N158S)
Test: cell-based

human 5-HT2C receptor, sequence (P28335 33-458 I156V/N158S/I160V limits assumed): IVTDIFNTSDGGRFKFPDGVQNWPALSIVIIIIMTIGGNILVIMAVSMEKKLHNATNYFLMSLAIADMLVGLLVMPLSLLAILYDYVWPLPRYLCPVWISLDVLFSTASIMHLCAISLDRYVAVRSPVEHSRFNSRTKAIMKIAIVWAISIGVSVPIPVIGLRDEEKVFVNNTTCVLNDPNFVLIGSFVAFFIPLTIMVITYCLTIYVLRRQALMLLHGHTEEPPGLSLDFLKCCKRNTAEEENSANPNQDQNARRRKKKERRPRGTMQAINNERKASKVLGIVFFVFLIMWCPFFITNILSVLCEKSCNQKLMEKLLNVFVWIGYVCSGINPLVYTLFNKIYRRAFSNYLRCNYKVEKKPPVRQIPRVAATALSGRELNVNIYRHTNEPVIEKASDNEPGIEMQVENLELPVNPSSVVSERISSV

Question: How did the EC50 turn out when `CN1CCc2nc3ccnn3c(N3CC(C(=O)N4CCN(C(=O)C5CCCCC5)CC4)C3)c2CC1` [Example 36.22] was run?
Answer: 181 nM

Question: How did the EC50 turn out when `CN1CCc2nc3ccnn3c(N3CC(C(=O)N4CCNC(=O)C4)C3)c2CC1` [Example 36.14] was run?
Answer: 364 nM

Question: `CN(C)C1CN(C(=O)C2CN(c3c4c(nc5ccnn35)CCNCC4)C2)C1` [Example 37.33] was tested. Which EC50 did it give?
Answer: 7 nM

Question: How did the EC50 turn out when `Cc1ccc2c(c1)CCCN2C(=O)C1CN(c2c3c(nc4ccnn24)CCNCC3)C1` [Example 31.190] was run?
Answer: 4 nM

Question: With `O=C(C1CN(c2c3c(nc4ccnn24)CCNCC3)C1)N1CCC(F)(F)C1` [Example 31.148] as the molecule, how does the EC50 read?
Answer: 19 nM

Question: `O=C(C1CN(c2c3c(nc4ccnn24)CCNCC3)C1)N1CC2CC(c3ccccc3)(C2)C1` [Example 31.232] was tested. Which EC50 did it give?
Answer: 95 nM

Question: For `CN1CCc2nc3ccnn3c(N3CC(C(=O)N4CCN(C5CCCC5)CC4)C3)c2CC1` [Example 36.13], which EC50 is on record?
Answer: 114 nM

Question: `C#CC1(NC(=O)C2CN(c3c4c(nc5ccnn35)CCNCC4)C2)CCCCC1` [Example 37.79] was tested. Which EC50 did it give?
Answer: 62 nM

Question: For `CN(Cc1cccc(F)c1)C(=O)C1CN(c2c3c(nc4ccnn24)CCNCC3)C1` [Example 31.125], which EC50 is on record?
Answer: 38 nM

Question: For `CN1CCc2nc3ccnn3c(N3CC(C(=O)N4CCNCC4)C3)c2CC1` [Example 36.57], which EC50 is on record?
Answer: 287 nM

Question: `O=C(C1CN(c2c3c(nc4ccnn24)CCNCC3)C1)N1CCc2c(cccc2C(F)(F)F)C1` [Example 31.102] was tested. Which EC50 did it give?
Answer: 36 nM

Question: `O=C(C1CN(c2c3c(nc4ccnn24)CCNCC3)C1)N1CCC(c2ccccc2F)CC1` [Example 31.113] was tested. Which EC50 did it give?
Answer: 27 nM

Question: `CN1CC(NC(=O)C2CN(c3c4c(nc5ccnn35)CCNCC4)C2)C1` [Example 37.64] was tested. Which EC50 did it give?
Answer: 4 nM

Question: Which EC50 does the source give for `O=C(C1CN(c2c3c(nc4ccnn24)CCNCC3)C1)N1CCCC(c2ccccc2)(c2ccccc2)C1` [Example 31.221] here?
Answer: 625 nM

Question: With `O=C(C1CN(c2c3c(nc4ccnn24)CCNCC3)C1)N1CCCC2(CCc3ccccc32)C1` (stereo not shown) [Example 31.173] as the molecule, how does the EC50 read?
Answer: 440 nM

Question: `Brc1ccc(OC2CN(c3c4c(nc5ccnn35)CCNCC4)C2)cc1` [Example 35.2] was tested. Which EC50 did it give?
Answer: 184 nM

Question: Which EC50 does the source give for `c1ccc(CN2CCN(c3c4c(nc5ccnn35)CCNCC4)CC2)cc1` [Example 1.1] here?
Answer: 108 nM

Question: How did the EC50 turn out when `CN1C2CCC1CC(NC(=O)C1CN(c3c4c(nc5ccnn35)CCNCC4)C1)C2` (stereo not shown) [Example 37.93] was run?
Answer: 12 nM

Question: `CS(=O)(=O)N1CCN(C(=O)C2CN(c3c4c(nc5ccnn35)CCNCC4)C2)CC1` [Example 37.45] was tested. Which EC50 did it give?
Answer: 2 nM

Question: Which EC50 does the source give for `CC(C)(O)[C@@H]1CCCN1C(=O)C1CN(c2c3c(nc4ccnn24)CCNCC3)C1` [Example 31.194] here?
Answer: 2560 nM

Question: With `CN1CCc2nc3ccnn3c(N3CC(C(=O)N4CCN(CC5CC5)CC4)C3)c2CC1` [Example 36.18] as the molecule, how does the EC50 read?
Answer: 77 nM

Question: With `O=C(C1CN(c2c3c(nc4ccnn24)CCNCC3)C1)N1CCC(F)CC1` [Example 31.206] as the molecule, how does the EC50 read?
Answer: 146 nM

Question: Which EC50 does the source give for `O=C(C1CN(c2c3c(nc4ccnn24)CCNCC3)C1)N1CCC(c2ccc(Cl)cc2)CC1` [Example 31.115] here?
Answer: 55 nM

Question: With `C#CC1CCN(C(=O)C2CN(c3c4c(nc5ccnn35)CCN(C)CC4)C2)C1` (stereo not shown) [Example 39, (3-Ethynyl-pyrrolidin-1-yl)-[1-(7-methyl-6,7,8,9-tetrahydro-5H-1,4,7,10a-tetraaza-cyclohept[f]inden-10-yl)-azetidin-3-yl]-methanone] as the molecule, how does the EC50 read?
Answer: 78 nM

Question: Which EC50 does the source give for `CN(C)CCCN(C)C(=O)C1CN(c2c3c(nc4ccnn24)CCN(C)CC3)C1` [Example 36.55] here?
Answer: 87 nM

Question: For `Fc1cccc(OC2CN(c3c4c(nc5ccnn35)CCNCC4)C2)c1` [Example 1.9], which EC50 is on record?
Answer: 26 nM

Question: For `Cc1ccc(C2CCN(C(=O)C3CN(c4c5c(nc6ccnn46)CCNCC5)C3)CC2)cc1` [Example 31.144], which EC50 is on record?
Answer: 66 nM

Question: For `CCC(C)CNC(=O)C1CN(c2c3c(nc4ccnn24)CCNCC3)C1` (stereo not shown) [Example 37.86], which EC50 is on record?
Answer: 41 nM

Question: `CCn1c(C2CN(c3c4c(nc5ccnn35)CCNCC4)C2)nc2cc(F)ccc21` [Example 34.39] was tested. Which EC50 did it give?
Answer: 666 nM

Question: Which EC50 does the source give for `CC1(C)CCCN(C(=O)C2CN(c3c4c(nc5ccnn35)CCNCC4)C2)C1` [Example 31.30] here?
Answer: 338 nM

Question: Which EC50 does the source give for `O=C(C1CN(c2c3c(nc4c(Br)cnn24)CCNCC3)C1)N1CCC2(CCCCC2)CC1` [Example 31.132] here?
Answer: 254 nM

Question: `CC1Cc2ccccc2N1C(=O)C1CN(c2c3c(nc4ccnn24)CCNCC3)C1` (stereo not shown) [Example 31.234] was tested. Which EC50 did it give?
Answer: 380 nM

Question: Which EC50 does the source give for `O=C(C1CN(c2c3c(nc4ccnn24)CCNCC3)C1)N1CC[C@H](c2ccccc2)C1` [Example 31.224] here?
Answer: 45 nM

Question: For `CC1CCN(C(=O)C2CN(c3c4c(nc5ccnn35)CCNCC4)C2)C1` (stereo not shown) [Example 31.124], which EC50 is on record?
Answer: 94 nM

Question: Which EC50 does the source give for `Cc1cc(OCC2CN(c3c4c(nc5ccnn35)CCNCC4)C2)ccc1F` [Example 15.4] here?
Answer: 25 nM

Question: How did the EC50 turn out when `COc1cccc(N(C)C(=O)C2CN(c3c4c(nc5ccnn35)CCNCC4)C2)c1` [Example 31.55] was run?
Answer: 600 nM

Question: How did the EC50 turn out when `OC1CCN(c2c3c(nc4ccnn24)CCNCC3)CC1` [Example 1.36] was run?
Answer: 1850 nM

Question: For `CN(CC1CC1)C(=O)C1CN(c2c3c(nc4ccnn24)CCNCC3)C1` [Example 31.97], which EC50 is on record?
Answer: 156 nM

Question: Which EC50 does the source give for `Cc1cnn2c(N3CC(C(=O)N4CCCC(F)(F)C4)C3)c3c(nc12)CCNCC3` [Example 31.238] here?
Answer: 13 nM

Question: Which EC50 does the source give for `CC1(C)CC1CNC(=O)C1CN(c2c3c(nc4ccnn24)CCNCC3)C1` (stereo not shown) [Example 37.110] here?
Answer: 255 nM

Question: How did the EC50 turn out when `Cc1ccc(OCC2CN(c3c4c(nc5ccnn35)CCNCC4)C2)cc1` [Example 15.18] was run?
Answer: 140 nM

Question: How did the EC50 turn out when `O=C(C1CN(c2c3c(nc4ccnn24)CCNCC3)C1)N1CCN2CCCC2C1` (stereo not shown) [Example 37.9] was run?
Answer: 3 nM

Question: Which EC50 does the source give for `O=C(C1CN(c2c3c(nc4ccnn24)CCNCC3)C1)N1CCC(Oc2ccccc2)CC1` [Example 31.154] here?
Answer: 40 nM

Question: For `Cn1c(C2CN(c3c4c(nc5ccnn35)CCNCC4)C2)nc2ccc(Cl)cc21` [Example 34.6], which EC50 is on record?
Answer: 65 nM

Question: For `O=C(C1CN(c2c3c(nc4ccnn24)CCNCC3)C1)N1CCc2c1ccc(F)c2F` [Example 31.155], which EC50 is on record?
Answer: 52 nM

Question: Which EC50 does the source give for `CC(C)NC1CCN(C(=O)C2CN(c3c4c(nc5ccnn35)CCNCC4)C2)CC1` [Example 37.21] here?
Answer: 2 nM

Question: How did the EC50 turn out when `CC(C)CCN(C)C(=O)C1CN(c2c3c(nc4ccnn24)CCNCC3)C1` [Example 31.74] was run?
Answer: 175 nM

Question: With `Clc1ccccc1OCC1CN(c2c3c(nc4ccnn24)CCNCC3)C1` [Example 15.6] as the molecule, how does the EC50 read?
Answer: 5 nM

Question: With `CC(C)(C)N1CCC2(CCN(C(=O)C3CN(c4c5c(nc6ccnn46)CCNCC5)C3)CC2)C1=O` [Example 31.150] as the molecule, how does the EC50 read?
Answer: 240 nM

Question: For `OC1CCCN(c2c3c(nc4ccnn24)CCNCC3)C1` (stereo not shown) [Example 1.38], which EC50 is on record?
Answer: 1810 nM

Question: `O=C(N1CCOCC1)C1(c2ccccc2)CCN(c2c3c(nc4ccnn24)CCNCC3)CC1` [Example 1.54] was tested. Which EC50 did it give?
Answer: 1640 nM

Question: For `Cc1ccc(OC2CN(c3c4c(nc5ccnn35)CCNCC4)C2)cc1` [Example 35.45], which EC50 is on record?
Answer: 129 nM

Question: How did the EC50 turn out when `c1ccc(O[C@H]2CCN(c3c4c(nc5ccnn35)CCNCC4)C2)cc1` [Example 1.46] was run?
Answer: 582 nM

Question: How did the EC50 turn out when `CCCn1c(C2CN(c3c4c(nc5ccnn35)CCNCC4)C2)nc2ccccc21` [Example 34.35] was run?
Answer: 472 nM

Question: Which EC50 does the source give for `O=C(C1CCCN(c2c3c(nc4ccnn24)CCNCC3)C1)N1CCC(C2CCCCC2)CC1` (stereo not shown) [Example 1.58] here?
Answer: 4710 nM

Question: How did the EC50 turn out when `c1ccc2c(c1)OCCN2c1c2c(nc3ccnn13)CCNCC2` [Example 1.39] was run?
Answer: 2580 nM

Question: With `O=C(NCc1ccc(OC(F)F)cc1)C1CN(c2c3c(nc4ccnn24)CCNCC3)C1` [Example 37.97] as the molecule, how does the EC50 read?
Answer: 8 nM

Question: For `CC1(C)CC(NC(=O)C2CN(c3c4c(nc5ccnn35)CCNCC4)C2)CC(C)(C)N1` [Example 37.7], which EC50 is on record?
Answer: 15 nM
